Results as given in patent US10301295B2, “Herbicidal compounds” (Syngenta Participations AG, priority 2014, dated 2019).
Read-outs that look alike come from different tables or passages of the source.

How the values were obtained:
Type in all cases: in vivo
[1] = tested on: Alopecurus myosuroides (ALOMY); assay: Glasshouse assay for herbicidal activity, pre-/post-emergence (percentage phytotoxicity); details: Alopecurus myosuroides, Rate 250 g/ha, 100%=total damage, 0%=no damage
Outline: (§1)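 Pre- and post-emergence treatments were applied to potted plants at 1 and ~12 days after sowing respectively. Percentage phytotoxicity was judged visually 20 or 15 days later.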

Lolium perenne (LOLPE) = assay: as above; details: Lolium perenne, Rate 250 g/ha, 100%=total damage, 0%=no damage
Outline: as §1

Avena fatua (AVEFA) = assay: as above; details: Avena fatua, Rate 250 g/ha, 100%=total damage, 0%=no damage
Outline: as §1

[2] = tested on: Echinochloa crus-galli (ECHCG); assay: as above; details: Echinochloa crus-galli, Rate 250 g/ha, 100%=total damage, 0%=no damage
Outline: as §1

wheat = assay: Post-emergence herbicidal activity against cereal crops (wheat) +/- safener, crop selectivity; details: 100%=total damage to plant, 0%=no damage; for Post-emergence herbicidal activity against wheat (percentage phytotoxicity), +CQC: 250 g/ha, plus safener cloquintocet-mexyl (CQC) applied at 50 g/ha; for percent phytotoxicity (crop damage) to wheat at 250 g/ha: Triticum aestivum, 360 h, without safener, read-out: Post-emergence herbicidal activity against wheat (percentage phytotoxicity), Wheat - CQC
Protocol: Seeds of a variety of monocotyledonous and dicotyledonous test plants are sown in standard soil in pots. The plants are cultivated for one day (for pre-emergence) or for about 12 days (for post-emergence) under controlled conditions in a glasshouse (warm climate species at 24/18° C., cool climate species at 20/16° C., both at day/night; 16 hours light; 65% humidity). The test plants are then grown on, in a glasshouse (greenhouse) under controlled conditions (warm climate species at 24/18° C., cool climate species at 20/16° C., both at day/night; 16 hours light; 65% humidity) and are watered twice daily. 15 days after application of the test herbicide (15DAA) (for post-emergence), and 20 days after application of the test herbicide (20DAA) (for pre-emergence), the test plants are evaluated visually, and an assessed percentage phytotoxicity score is given for each herbicidal application on each plant species (with 100%=total damage to plant; 0%=no damage to plant).

[3] = 360 h, post-emergence, visual assessment 15 DAA, read-out: Post-emergence herbicidal activity (percentage phytotoxicity), ALOMY POST
[4] = 480 h, pre-emergence, visual assessment 20 DAA, read-out: Pre-emergence herbicidal activity (percentage phytotoxicity), ALOMY PRE
[5] = post-emergence, 360 h, post-emergence, visual assessment 15 DAA, read-out: Post-emergence herbicidal activity (percentage phytotoxicity), LOLPE POST
[6] = pre-emergence, 480 h, pre-emergence, visual assessment 20 DAA, read-out: Pre-emergence herbicidal activity (percentage phytotoxicity), LOLPE PRE
[7] = post-emergence, 360 h, post-emergence, visual assessment 15 DAA, read-out: Post-emergence herbicidal activity (percentage phytotoxicity), AVEFA POST
[8] = pre-emergence, 480 h, pre-emergence, visual assessment 20 DAA, read-out: Pre-emergence herbicidal activity (percentage phytotoxicity), AVEFA PRE
[9] = post-emergence, 360 h, post-emergence, visual assessment 15 DAA, read-out: Post-emergence herbicidal activity (percentage phytotoxicity), ECHCG POST
[10] = pre-emergence, 480 h, pre-emergence, visual assessment 20 DAA, read-out: Pre-emergence herbicidal activity (percentage phytotoxicity), ECHCG PRE

| Structure (SMILES) | pest or weed control at 250 g/ha [1, 3] | pest or weed control at 250 g/ha [1, 4] | pest or weed control at 250 g/ha (Lolium perenne (LOLPE); [5]) | pest or weed control at 250 g/ha (Lolium perenne (LOLPE); [6]) | pest or weed control at 250 g/ha (Avena fatua (AVEFA); [7]) | pest or weed control at 250 g/ha (Avena fatua (AVEFA); [8]) | pest or weed control at 250 g/ha [2, 9] | pest or weed control at 250 g/ha [2, 10] | Post-emergence herbicidal activity against wheat (percentage phytotoxicity), +CQC (wheat) | percent phytotoxicity (crop damage) to wheat at 250 g/ha (wheat) |
| --- | --- | --- | --- | --- | --- | --- | --- | --- | --- | --- |
| Cc1cc(C)c(C2C(=O)CC(CCNC(=O)NC(=O)c3ccc(Cl)c(Cl)c3)C2=O)c(C)c1 (stereo not drawn) [Compound A68] | 50% | 0% | 80% | 30% | 0% | 10% | 70% | 10% | 0% | 90% |
| Cc1cc(C)c(C2C(=O)CC(CCNS(=O)(=O)c3cccs3)C2=O)c(C)c1 (stereo not drawn) [Compound A82] | 40% | 70% | 50% | 70% | 30% | 0% | 20% | 30% | 0% | 0% |
| Cc1cc(C)c(C2C(=O)CC(CCNC(=O)Nc3ccccc3)C2=O)c(C)c1 (stereo not drawn) [Compound A9, 1-[2-[2,4-dioxo-3-(2,4,6-trimethylphenyl)cyclopentyl]ethyl]-3-phenyl-urea] | 30% | 60% | 90% | 80% | 80% | 60% | 80% | 80% | 10% | 40% |
| Cc1cc(C)c(C2C(=O)CC(CCNC(=O)NC(=O)c3c(F)cc(Cl)cc3F)C2=O)c(C)c1 (stereo not drawn) [Compound A64] | 90% | 100% | 100% | 80% | 90% | 80% | 90% | 80% | 80% | 90% |
| CC(=NOCc1ccccc1)C(=O)NCCC1CC(=O)C(c2c(C)cc(-n3cc(Cl)cn3)cc2C)C1=O (stereo not drawn) [Compound A41] | 60% | 0% | 40% | 0% | 20% | 0% | 60% | 0% | 20% | 60% |
| CON=C(C)C(=O)NCCC1CC(=O)C(c2c(C)cc(-n3cc(Cl)cn3)cc2C)C1=O (stereo not drawn) [Compound A38] | 70% | 70% | 80% | 70% | 80% | 70% | 100% | 100% | 30% | 70% |
| Cc1cc(C)c(C2C(=O)CC(CCNc3nc4ccc(Cl)cc4o3)C2=O)c(C)c1.Cl (stereo not drawn) [Compound A35] | 90% | 70% | 100% | 100% | 70% | 60% | 100% | 80% | 60% | 80% |
| Cc1cc(C)c(C2C(=O)CC(CCNc3ncc(C(F)(F)F)cc3Cl)C2=O)c(C)c1 (stereo not drawn) [Compound A36] | 90% | 60% | 100% | 90% | 100% | 90% | 90% | 90% | 10% | 80% |
| COc1ccc(S(=O)(=O)NCCC2CC(=O)C(c3c(C)cc(C)cc3C)C2=O)cc1 (stereo not drawn) [Compound A79] | 30% | 30% | 60% | 70% | 60% | 10% | 40% | 50% | 0% | 30% |
| Cc1cc(C)c(C2C(=O)CC(CCNS(=O)(=O)c3ccc(F)c(Cl)c3)C2=O)c(C)c1 (stereo not drawn) [Compound A75] | 60% | 70% | 70% | 80% | 80% | 60% | 30% | 70% | 0% | 0% |
| Cc1cc(C)c(C2C(=O)CC(CCNC(=O)NC(=O)c3cc(F)ccc3C(F)(F)F)C2=O)c(C)c1 (stereo not drawn) [Compound A63] | 100% | 90% | 90% | 80% | 90% | 40% | 80% | 70% | 80% | 80% |
| Cc1cc(C)c(C2C(=O)CC(CCNC(=O)N(C)c3ccccn3)C2=O)c(C)c1 (stereo not drawn) [Compound A11] | 90% | 100% | 100% | 100% | 90% | 90% | 90% | 100% | 70% | 80% |
| Cc1cc(C)c(C2C(=O)CC(CCNC(=O)Nc3ncccn3)C2=O)c(C)c1 (stereo not drawn) [Compound A30] | 90% | 80% | 80% | 90% | 80% | 80% | 90% | 60% | 40% | 70% |
| CC#Cc1cc(C)c(C2C(=O)CC(CCNC(=O)N(C)c3ccccn3)C2=O)c(C)c1.Cl (stereo not drawn) [Compound A22] | 80% | 70% | 90% | 100% | 100% | 100% | 100% | 100% | 30% | 80% |
| Cc1cc(C)c(C2C(=O)CC(CCNC(=O)Nc3ccc(Br)cn3)C2=O)c(C)c1.Cl (stereo not drawn) [Compound A4] | 90% | 80% | 100% | 80% | 100% | 70% | 90% | 60% | 50% | 90% |
